Data published in ChEMBL document CHEMBL1201862, “PubChem BioAssay data set” (2004).
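Assay format: 96-well plates, 48-hour exposure. GI50: concentration for 50% inhibition of growth.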 Activity calls are given as the source filed them. Cut-off read from the data, not from the text of the source: active = GI50 up to about 1.1 µM and inactive = higher.

Legend:
Experiment in all cases: DTP human tumour cell line panel, 48 h
SK-MEL-5 = test system: SK-MEL-5
MOLT-4 = test system: MOLT-4
NCI-H226 = test system: NCI-H226
M19-MEL = test system: M19-MEL
K562 = test system: K562
CAKI-1 = test system: CAKI-1
SN12C = test system: SN12C
OVCAR-4 = test system: OVCAR-4
HOP-92 = test system: HOP-92
OVCAR-8 = test system: OVCAR-8
SK-OV-3 = test system: SK-OV-3
SR = test system: SR
A498 = test system: A498
NCI-H522 = test system: NCI-H522
HL-60 = test system: HL-60
CCRF-CEM = test system: CCRF-CEM
IGROV-1 = test system: IGROV-1
SNB-78 = test system: SNB-78
SF-295 = test system: SF-295
U-251 = test system: U-251
TK-10 = test system: TK-10
SF-268 = test system: SF-268
DMS-273 = test system: DMS-273
EKVX = test system: EKVX
SK-MEL-2 = test system: SK-MEL-2
XF498 = test system: XF498
SF-539 = test system: SF-539
NCI-H23 = test system: NCI-H23
DLD-1 = test system: DLD-1
LXFL 529 = test system: LXFL 529
OVCAR-3 = test system: OVCAR-3
786-0 = test system: 786-0
HCT-15 = test system: HCT-15
UO-31 = test system: UO-31
UACC-257 = test system: UACC-257
LOX IMVI = test system: LOX IMVI
COLO 205 = test system: COLO 205
UACC-62 = test system: UACC-62
SW-620 = test system: SW-620
SNB-19 = test system: SNB-19
Malme-3M = test system: Malme-3M
HOP-18 = test system: HOP-18
HT-29 = test system: HT-29
HCT-116 = test system: HCT-116
M14 = test system: M14
RXF 393 = test system: RXF 393
HOP-62 = test system: HOP-62
KM12 = test system: KM12
SK-MEL-28 = test system: SK-MEL-28
OVCAR-5 = test system: OVCAR-5
SNB-75 = test system: SNB-75
NCI-H460 = test system: NCI-H460
HCC 2998 = test system: HCC 2998
DMS-114 = test system: DMS-114
A549 = test system: A549
ACHN = test system: ACHN
KM-20L2 = test system: KM-20L2
RPMI-8226 = test system: RPMI-8226

With `Cc1cc(C)nc(/C(=N\NC(N)=O)C(=O)Nc2nc3ccc(C)cc3s2)c1` the GI50 (SK-MEL-5) was > 100 µM (inactive), the GI50 (MOLT-4) was > 100 µM (inactive) and the GI50 (NCI-H226) was > 100 µM (inactive). The GI50 (M19-MEL) was > 100 µM (inactive), the GI50 (K562) was > 61.4 µM (inactive) and the GI50 (CAKI-1) was > 100 µM (inactive). For the same compound, the GI50 (SN12C) was > 100 µM (inactive), the GI50 (OVCAR-4) was > 100 µM (inactive) and the GI50 (HOP-92) was > 100 µM (inactive). The GI50 (OVCAR-8) was > 100 µM (inactive), the GI50 (SK-OV-3) was > 100 µM (inactive) and the GI50 (SR) was 19.5 µM (inactive). For the same compound, the GI50 (A498) was > 100 µM (inactive), the GI50 (NCI-H522) was > 93.1 µM (inactive) and the GI50 (HL-60) was > 100 µM (inactive). The GI50 (CCRF-CEM) was > 48.1 µM (inactive), the GI50 (IGROV-1) was > 100 µM (inactive) and the GI50 (SNB-78) was > 100 µM (inactive). The GI50 (SF-295) was > 100 µM (inactive), the GI50 (U-251) was > 100 µM (inactive) and the GI50 (TK-10) was > 100 µM (inactive). For the same compound, the GI50 (SF-268) was > 100 µM (inactive), the GI50 (DMS-273) was > 58.1 µM (inactive) and the GI50 (EKVX) was > 100 µM (inactive). For the same compound, the GI50 (SK-MEL-2) was > 100 µM (inactive), the GI50 (XF498) was > 100 µM (inactive) and the GI50 (SF-539) was > 100 µM (inactive). For the same compound, the GI50 (NCI-H23) was > 100 µM (inactive), the GI50 (DLD-1) was > 85.3 µM (inactive) and the GI50 (LXFL 529) was > 100 µM (inactive). The GI50 (OVCAR-3) was > 100 µM (inactive), the GI50 (786-0) was > 100 µM (inactive) and the GI50 (HCT-15) was greater than 70 µM. For the same compound, the GI50 (UO-31) was > 100 µM (inactive), the GI50 (UACC-257) was > 100 µM (inactive) and the GI50 (LOX IMVI) was > 46.6 µM (inactive). The GI50 (COLO 205) was > 47.8 µM (inactive), the GI50 (UACC-62) was > 100 µM (inactive) and the GI50 (SW-620) was > 100 µM (inactive). For the same compound, the GI50 (SNB-19) was > 100 µM (inactive), the GI50 (Malme-3M) was > 100 µM (inactive) and the GI50 (HOP-18) was > 100 µM (inactive). For the same compound, the GI50 (HT-29) was > 77.3 µM (inactive), the GI50 (HCT-116) was > 56.5 µM (inactive) and the GI50 (M14) was > 100 µM (inactive). The GI50 (RXF 393) was > 100 µM (inactive), the GI50 (HOP-62) was > 100 µM (inactive) and the GI50 (KM12) was > 100 µM (inactive). The GI50 (SK-MEL-28) was > 100 µM (inactive), the GI50 (OVCAR-5) was > 100 µM (inactive) and the GI50 (SNB-75) was > 100 µM (inactive). The GI50 (NCI-H460) was > 100 µM (inactive), the GI50 (HCC 2998) was > 100 µM (inactive) and the GI50 (DMS-114) was > 48.5 µM (inactive). The GI50 (A549) was > 100 µM (inactive), the GI50 (ACHN) was > 100 µM (inactive) and the GI50 (KM-20L2) was > 92.3 µM (inactive). The GI50 (RPMI-8226) was > 48.2 µM (inactive).
